Molecular target: Prothrombin (Homo sapiens, UniProt P00734)
Assay: Inhibition of thrombin

Structure (SMILES) | IC50 [nM]
CC(C)C[C@@H](NC(=O)[C@H](O)Cc1ccccc1)C(=O)N1[C@H](C(=O)NCCCCN=C(N)N)C[C@@H]2CC[C@@H](O)C[C@@H]21 | 5600
CC(C)C[C@@H](NC(=O)[C@H](O)Cc1ccccc1)C(=O)N1[C@H](C(=O)NCCCCN=C(N)N)C[C@@H]2CCCC[C@@H]21 | 1500
CC[C@@H](C)[C@@H](NC(=O)[C@H](O)Cc1ccccc1)C(=O)N1CCC[C@H]1C(=O)NCc1ccc(C(=N)N)cc1 | 7
N=C(N)c1ccc(CNC(=O)[C@@H]2C[C@@H]3CCCC[C@@H]3N2C(=O)C(NC(=O)[C@H](O)Cc2ccccc2)C2CCCCC2)cc1 (stereo partly specified) | 3.4
CC(C)[C@H](Cl)[C@@H](NC(=O)[C@H](O)Cc1ccccc1)C(=O)N1[C@H](C(=O)NCCCCN=C(N)N)C[C@@H]2CC[C@@H](O)C[C@@H]21 | 310
CC[C@H](C)[C@@H](NC(=O)CCc1ccccc1)C(=O)N1[C@H](C(=O)NCc2ccc(C(=N)N)cc2)C[C@@H]2CCCC[C@@H]21 | 334
CO[C@H](CO)C(=O)N[C@@H](C(=O)N1[C@H](C(=O)NCCC2=CCN(C(=N)N)C2)C[C@@H]2C[C@H](O)[C@@H](O)C[C@@H]21)[C@@H](Cl)C(C)C | 11
CC[C@H](C)[C@@H](NC(C)=O)C(=O)N1[C@H](C(=O)NCc2ccc(C(=N)N)cc2)C[C@@H]2CCCC[C@@H]21 | 786

The remaining lines, values ahead:

IC50 [nM] | Structure (SMILES)
120 | CC(C)C[C@@H](NC(=O)[C@H](O)Cc1ccccc1)C(=O)N1[C@H](C(=O)NCCC2=CCN(C(=N)N)C2)C[C@@H]2CCCC[C@@H]21
220 | CC(C)C[C@@H](NC(=O)[C@H](O)Cc1ccccc1)C(=O)N1[C@H](C(=O)NCCC2=CCN(C(=N)N)C2)C[C@@H]2CC[C@@H](O)C[C@@H]21
1.6 | CC(C)[C@H](Cl)[C@@H](NC(=O)[C@H](O)Cc1ccccc1)C(=O)N1[C@H](C(=O)NCc2ccc(C(=N)N)cc2)C[C@@H]2CCCC[C@@H]21
101 | CC[C@H](C)[C@@H](N)C(=O)N1[C@H](C(=O)NCc2ccc(C(=N)N)cc2)C[C@@H]2CCCC[C@@H]21
3.3 | CC[C@H](C)[C@@H](NC(=O)[C@H](O)Cc1ccccc1)C(=O)N1[C@H](C(=O)NCc2ccc(C(=N)N)cc2)C[C@@H]2CCCC[C@@H]21
97 | CC(C)C[C@@H](NC(=O)[C@H](O)Cc1ccccc1)C(=O)N1[C@H](C(=O)NCc2ccc(C(=N)N)cc2)C[C@@H]2CCCC[C@@H]21
171 | CC[C@H](C)C(NC(=O)OC(C)(C)C)C(=O)N1[C@H](C(=O)NCc2ccc(C(=N)N)cc2)C[C@@H]2CCCC[C@@H]21 (single isomer, unassigned)
53 | CC[C@H](C)C(NC(=O)[C@@H](C)O)C(=O)N1[C@H](C(=O)NCc2ccc(C(=N)N)cc2)C[C@@H]2CCCC[C@@H]21 (single isomer, unassigned)

From ChEMBL document CHEMBL1139932, “Structure-based organic synthesis of unnatural aeruginosin hybrids as potent inhibitors of thrombin” (Bioorg Med Chem Lett, 2007)
